Measurements taken from patent publication US20090252751A1, “Immune adjuvant comprising ubiquinone” (priority 2007, published 2009).

Key:
Format in all cases: in vivo
Balb/c mice [1] = assay: Production amount of antibody in mouse serum by ELISA after dermal administration of antigenic substance with immunoadjuvant (Test Example 1)
Balb/c mice [2] = assay: Measurement of IgG1/IgG2 ratio in blood sample as index of Th2/Th1 balance (Test Example 2)
Method: The blood sample collected on the 25th day from the start of the test was provided, and the IgG1/IgG2 ratio was measured as an index of Th2/Th1 balance.
Further, a blood sample obtained by inoculating only the antigenic substance by intraperitoneal administration instead of the dermal administration at the same time as in the administration schedule in Test Example 1 was used as a control blood sample for comparison.
The IgG1/IgG2 ratio was measured with a Mouse Monoclonal Antibody Isotyping Reagents kit (SIGMA).
Specifically, a mouse serum was diluted with PBS by a factor of 1000 to give a solution. The solution (100 μL) was added to wells in a plate and was incubated at 37° C. for one hr. Next, each well was washed three times with PBS, and 100 μL of isotyping specific reagents (reagents containing IgA, IgG1, IgG2a, and IgG2b), which had been diluted by a factor of 1000, were added to the wells followed by incubation at room temperature for 30 min. Each well was washed three times with PBST. A peroxidase labelled […] (manufactured by SIGMA) (100 μL), which had been diluted with PBST by a factor of 5000, was added to the wells, and the wells were allowed to stand at room temperature for one hr. The wells were then washed three times with PBST. […] For each well, the absorbance was measured with Multiscan Ascent (manufactured by Thermo Labsystems, wave length 405 nm).

mice = assay: Production amount of antibody in mice by ELISA with CoQ2, CoQ4, CoQ6 or CoQ10 as immunoadjuvant (Test Example 3); settings: used as immunoadjuvant together with antigenic substance; serum sample on the 25th day; ELISA absorbance (FIG. 3)
Method: The following test was carried out according to the procedure of Text example 1 by using ELISA to confirm the amount of antibody in mice produced upon the administration of coenzyme Q2 (n=2; CoQ2), coenzyme Q4 (n=4; CoQ4), coenzyme Q6 (n=6; CoQ6) or coenzyme Q10 (n=10; CoQ10) together with an antigenic substance. The case where only an antigenic substance had been administered was selected as a reference example in the test.
As a result, the average of the absorbance for the serum sample on the 25th day from the start of the test in each group was as shown in FIG. 3.

Compound	production amount of the antibody compared with the case where only the antigenic substance was administered (mice)	other results
cholera toxin [reference compound]	–	average±standard error of the absorbance (amount of produced antibody, ELISA) (Balb/c mice [1]; mouse, in vivo): 0.551±0.202; IgG1/IgG2 ratio (given as average of the absorbance) (Balb/c mice [2]; mouse, in vivo): 1.46
COC1=C(OC)C(=O)C(C/C=C(\C)CC/C=C(\C)CC/C=C(\C)CCC=C(C)C)=C(C)C1=O [coenzyme Q4]	larger	–
COC1=C(OC)C(=O)C(C/C=C(\C)CC/C=C(\C)CC/C=C(\C)CC/C=C(\C)CC/C=C(\C)CCC=C(C)C)=C(C)C1=O [coenzyme Q6]	larger	–
COC1=C(OC)C(=O)C(C/C=C(\C)CCC=C(C)C)=C(C)C1=O [coenzyme Q2]	larger	–
COC1=C(OC)C(=O)C(C/C=C(\C)CC/C=C(\C)CC/C=C(\C)CC/C=C(\C)CC/C=C(\C)CC/C=C(\C)CC/C=C(\C)CC/C=C(\C)CC/C=C(\C)CCC=C(C)C)=C(C)C1=O [coenzyme Q10]	larger	average±standard error of the absorbance (amount of produced antibody, ELISA) (Balb/c mice [1]; dermal administration (tape preparation), serum sample on the 25th day from the start of the test, serum diluted 1000-fold, 405 nm, n=4): 0.670±0.033; IgG1/IgG2 ratio (given as average of the absorbance) (Balb/c mice [2]; dermal administration of the antigenic substance together with adjuvant, blood sample on the 25th day): 2.28
